Test results reported in patent US20260262647A1, “Synergistic Compositions Containing Guanidine” (Thor GmbH, priority 2023, published 2026).

What was measured:
Type in all cases: cell-based
[1] = tested on: Pseudomonas spec. DSM 115322; assay: Minimum inhibitory concentrations and synergy index in Müller-Hinton broth
Protocol: (§1) Test organisms used were Gram-negative bacterial species from the group of pseudomonads, Pseudomonas putida DSM 115323 and Pseudomonas spec. DSM 115322. For this purpose, mixtures with different concentrations of the respective active substances were prepared and tested for their effect on the pseudomonads. The test was run in Müller-Hinton broth MHB with a cell density of 10^6 microbes per ml. When organic acids are used as a combination partner with the guanidine, MHB was adjusted to pH 5.5.
(§2) The incubation was run in microplates at 30° C. for 48 hours. After 48 hours, the batches were evaluated for turbidity resulting from growth, and optical density was additionally determined photometrically. In this way, the minimum inhibitory concentrations (MICs) of the two actives were determined individually and in combination.
(§3) The calculation was done according to the standard method of F. C. Kull et al., Applied Microbiology, vol. 9 (1961), p. 538.
(§4) This involves calculating the synergy index (SI) by the following formula:
(§5) [formula] • Qa=concentration of component A in the A+B mixture • QA=concentration of component A as the sole biocide • Qb=concentration of component B in the A+B mixture • QB=concentration of component B as the sole biocide
(§6) If the synergy index is greater than 1, this means that there is antagonism. If the synergy index assumes the value 1, this means that the effect of the two biocides/compounds is additive. If the synergy index assumes a value of less than 1, this means that there is synergism between the two biocides/compounds.

bacteria mixture B = assay: Emulsion paint inoculated once with bacteria mixture B, semiquantitative growth evaluation; parameters: key: 0: No growth; Minimal growth, 1 to 10 colonies visible over the entire streak; 2: Light growth, maximum 100 colonies; Moderate growth, maximum 300 to 400 colonies; Uniform growth, >400 colonies, single colonies still clearly recognizable; 5: Heavy growth, too many colonies to count, but no growth over the entire streak; 6: Full growth, barely any single colonies still apparent, growth over the entire streak; conditions: Example 35, emulsion paint, +500 ppm BIT
Source text: In examples 35 to 38 below, synergistic interaction between guanidine and antimicrobial substances with respect to microbial infestation was studied using an emulsion paint and a laundry detergent or cleaning composition by adding particular amounts of guanidine salts and isothiazolinones and examining their stability against microbial infestation: […] The laundry detergent was a heavy-duty laundry detergent without preservatives (pH 8.1), and the cleaning composition was an all-purpose detergent without preservatives (pH 7.6), each likewise made in the laboratory, without addition of the otherwise usual conventional preservatives. To each paint was added—individually and in combination—particular concentrations of guanidinium hydrochloride, benzisothiazolinone (BIT), and a mixture of chloromethylisothiazolinone (CIT) and methylisothiazolinone (MIT). The laundry detergent and the cleaning composition were admixed with particular concentrations of guanidinium hydrochloride and benzisothiazolinone (BIT). The resultant batches of the paint thus prepared were inoculated with a mixture of different bacteria species (bacteria mixture B); the batches of the laundry detergent and cleaning compositions thus prepared were inoculated with a yeast mixture. • Pseudomonas spp. (Pseudomonas oleovorans group) DSM 33933 • Pseudomonas aeruginosa DSM 33935 • Pseudomonas oleovorans DSM 33936 • Pseudomonas spec. DSM 33937 • Pseudomonas aeruginosa DSM 33938 […] The cell suspension of the bacteria mixture was produced by growing the individual bacteria at 30° C. for 24 h in liquid culture on a shaker. The growth medium used for the bacteria was Müller-Hinton liquid medium. After growing, the individual liquid cultures were centrifuged, and the cells were resuspended in physiological saline solution. […] The cell count of the inoculum was determined in each case by chamber counting. […] The streaked agar plates were then incubated at 30° C. for 48 hours (bacteria) or at 25° C. for 72 hours (yeasts). After incubation, the bacterial or yeast colonies that have grown on the agar plates were visually evaluated and quantified according to the following scheme: [table]

yeast mixture [2] = assay: Laundry detergent inoculated once with yeast mixture, semiquantitative growth evaluation; parameters: key: 0: No growth; Minimal growth, 1 to 10 colonies visible over the entire streak; 2: Light growth, maximum 100 colonies; Moderate growth, maximum 300 to 400 colonies; Uniform growth, >400 colonies, single colonies still clearly recognizable; 5: Heavy growth, too many colonies to count, but no growth over the entire streak; 6: Full growth, barely any single colonies still apparent, growth over the entire streak; conditions: Example 37, laundry detergent, +100 ppm BIT
Source text: (§7) In examples 35 to 38 below, synergistic interaction between guanidine and antimicrobial substances with respect to microbial infestation was studied using an emulsion paint and a laundry detergent or cleaning composition by adding particular amounts of guanidine salts and isothiazolinones and examining their stability against microbial infestation: […] The laundry detergent was a heavy-duty laundry detergent without preservatives (pH 8.1), and the cleaning composition was an all-purpose detergent without preservatives (pH 7.6), each likewise made in the laboratory, without addition of the otherwise usual conventional preservatives. To each paint was added—individually and in combination—particular concentrations of guanidinium hydrochloride, benzisothiazolinone (BIT), and a mixture of chloromethylisothiazolinone (CIT) and methylisothiazolinone (MIT). The laundry detergent and the cleaning composition were admixed with particular concentrations of guanidinium hydrochloride and benzisothiazolinone (BIT). The resultant batches of the paint thus prepared were inoculated with a mixture of different bacteria species (bacteria mixture B); the batches of the laundry detergent and cleaning compositions thus prepared were inoculated with a yeast mixture. • Pichia manshurica DSM 12249 • Rhodotorula mucilaginosa DSM 12248 • Candida boidinii DSM 13622 • Candida albicans DSM 1386 […] Further steps for establishment of a cell count of the inoculum suspension of 10^8/ml were effected analogously to the production of the bacteria suspension. […] The streaked agar plates were then incubated at 30° C. for 48 hours (bacteria) or at 25° C. for 72 hours (yeasts). After incubation, the bacterial or yeast colonies that have grown on the agar plates were visually evaluated and quantified according to the following scheme: [table]

yeast mixture [3] = assay: All-purpose detergent inoculated once with yeast mixture, semiquantitative growth evaluation; parameters: key: 0: No growth; Minimal growth, 1 to 10 colonies visible over the entire streak; 2: Light growth, maximum 100 colonies; Moderate growth, maximum 300 to 400 colonies; Uniform growth, >400 colonies, single colonies still clearly recognizable; 5: Heavy growth, too many colonies to count, but no growth over the entire streak; 6: Full growth, barely any single colonies still apparent, growth over the entire streak; conditions: Example 38, all-purpose detergent, +100 ppm BIT
Source text: as §7

[4] = tested on: Pseudomonas putida DSM 115323; assay: Minimum inhibitory concentrations and synergy index in Müller-Hinton broth
Protocol: as §1, §2, §3, §4, §5, §6

SMILES	QB: Concentration of BIT as the sole agent that shows an endpoint ([1]; BIT alone, 48 hours at 30° C.) [ppm]	Synergy index Qa/QA + Qb/QB ([1]; guanidine and BIT, Qa, Qb)	Bacterial growth (bacteria mixture B; Day 1)	Bacterial growth (bacteria mixture B; Day 6)	Bacterial growth (yeast mixture [2]; Day 1)	Bacterial growth (yeast mixture [2]; Day 3)	Yeast growth (yeast mixture [3]; Day 1)	Yeast growth (yeast mixture [3]; Day 3)	QB: Concentration of CIT as the sole agent that shows an endpoint ([4]; CIT alone, 48 hours at 30° C.) [ppm]	Synergy index Qa/QA + Qb/QB ([4]; guanidine and CIT, Qa, Qb)
O=c1[nH]sc2ccccc12 [BIT, 1,2-benzisothiazolin-3-one]	300	1.00	6	6	6	4 (Uniform growth, >400 colonies, single colonies still clearly recognizable)	6	4 (Uniform growth, >400 colonies, single colonies still clearly recognizable)		
Cn1sc(Cl)cc1=O [CIT, 5-chloro-2-methyl-4-isothiazolin-3-one]									3.0	1.00
